{"source": "paper PMC5675618", "about": "“Identification and validation of FGFR2 peptide for detection of early Barrett's neoplasia” (Oncotarget, 2017)", "key": {"[1]": {"tested_on": "sections of human esophageal squamous cell cancer (SCC)", "assay": "Confocal microscopy of staining of human esophageal squamous cell cancer (SCC) ex vivo", "excerpt": "We observed good co-localization of peptide and antibody binding on merged images, Supplementary Figure 5C. Representative histology (H&E) for SCC is shown, Supplementary Figure 5D. […] Representative histology (H&E) for normal stomach is shown, Supplementary Figure 5H."}, "[2]": {"tested_on": "QhTERT cells that express FGFR2c", "assay": "Apparent association time constant by flow cytometry", "type": "binding, human", "settings": "5 μM, RT, 0 to 30 min", "procedure": "We measured the apparent association time constant of the peptide to QhTERT/FGFR2c cells to assess binding onset. Cells were grown to ~80% confluence in 10 cm dishes, and detached with PBS-based cell dissociation buffer (Invitrogen). Cells (~10^5 were incubated with 5 μM SRR-Cy5.5 at RT for various time intervals ranging from 0 to 30 min. The cells were centrifuged, and washed with cold PBS. Flow cytometry analysis was performed as described above, and the median fluorescence intensity (y) were measured on flow cytometry at different time points (t) using Flowjo software. The rate constant k was calculated by fitting the data to a first order kinetics model, y(t) = Imax[1-exp^(-kt)], where Imax = maximum value using Prism 5.0 software (GraphPad Inc)."}, "[3]": {"tested_on": "QhTERT cells that express FGFR2b", "assay": "Confocal fluorescence microscopy, binding to QhTERT cells that express FGFR2b", "type": "cell-based, human", "excerpt": "All human esophageal specimens were obtained with written, informed patient consent per approval and guidelines of the University of Michigan Institutional Review Board (IRB). Human non-dysplastic Barrett's esophagus (BE) cells immortalized with hTert (QhTERT) were obtained from the American Type Culture Collection (ATCC) and cultured in keratinocyte-serum free medium containing bovine pituitary extract and human recombinant EGF (ThermoFisher #17005042). QhTERT cells with stable expression of FGFR2b or FGFR2c were provided (DGB). We cultured these cells with keratinocyte-serum free medium containing bovine pituitary extract and human recombinant EGF (ThermoFisher #17005042) and added 1 μg/mL of puromycin-dihydrochloride (Invitrogen #A11138-03). All cells were cultured at 37°C in 5% CO2, and were passaged using 0.25% EDTA containing trypsin (Mediatech Inc). A hemocytometer was used to determine cell number. Peptide synthesis reagents were obtained from either Anaspec or AAPPTEC with the highest grade available (>99% purity) and used without further purification. Solvents and other chemical reagents were obtained from Sigma-Aldrich, unless otherwise stated.\n~10^3 QhTERT/wt, QhTERT/FGFR2b, and QhTERT/FGFR2c cells were grown on cover glass to ~80% confluence. The cells were washed with PBS 1X and incubated with 1 μM of either peptide for 10 min at RT. The cells were then washed 3X in PBS, fixed with 4% paraformaldehyde (PFA) for 5 min, washed 1X with PBS, and then mounted on glass slides with ProLong Gold reagent containing DAPI (Invitrogen). Confocal fluorescence images were collected with Cy5.5 and DAPI filters (Leica Inverted SP5X 2-Photon FLIM confocal microscopes) using a 63X oil-immersion objective. Fluorescence intensities from 3 cells in each of 3 independent images were quantified using custom Matlab (Mathworks) software."}}, "data": [{"sequence": "SRRPASFRTARE [SRR^*-Cy5.5]", "values": [{"measurement": "mean fluorescence intensity, SCC versus normal, SRR*-Cy5.5", "setting": "[1]; P=5×10-21, paired two-sided t-test, 3 boxes of 30×30 μm2", "result": "significantly greater mean fluorescence intensity"}, {"measurement": "fluorescence intensity / binding, esophageal SCC", "setting": "[1]; SCC sections ex vivo, n = 35 patients", "result": "strong fluorescence intensity"}, {"measurement": "staining, normal human esophagus", "setting": "[1]; normal esophagus, comparison", "result": "minimal staining"}, {"measurement": "apparent association time constant k", "setting": "[2]; median fluorescence intensity by flow cytometry, first order kinetics, representative of 3 independent experiments", "result": 0.16, "unit": "min⁻¹"}, {"measurement": "time scale for onset of binding", "setting": "[2]; from k", "result": "~ 6.2 min"}, {"measurement": "cell surface fluorescence signal / binding", "setting": "[3]; 1 μM peptide, 10 min at RT, confocal, 63X", "result": "strong signal"}, {"measurement": "mean fluorescence intensity versus control SPS^*-Cy5.5", "setting": "[3]; compared with wild-type, log-transformed, ANOVA, 3 random cells on each of 3 slides", "result": "significantly greater mean fluorescence intensity"}]}]}
